Test results: patent US11505533B2, “Metabolically stable N-acylaminooxadiazoles useful as antibacterial agents” (MICROBIOTIX, INC., priority 2017, dated 2022)
≈ marks a conversion by molar mass, not a printed value.

What was measured:
E. coli TolC(−) = experiment: TolC(−) MIC (NB); assay type: cell-based; details: Escherichia coli, read-out: TolC(−) MIC (μM)(NB)
[1] = Mammalian cell cytotoxicity
[2] = Aqueous solubility, nephelometry; details: water, kinetic from dmso stock
[3] = Microsomal stability + NADPH; details: mouse liver microsomes, 0.5 hr at 37° C.

**Q.** With `O=C(Nc1nnc(C2COc3ccccc3O2)o1)c1ccc(OC2CCCCC2)nc1` (stereo not shown) [compound 4926] as the molecule, how does the MIC (E. coli TolC(−)) read?
**A.** 1.56 µM (≈ 0.659 µg/mL)

**Q.** Which MIC (E. coli TolC(−)) does the source give for `CC(C)(C)C1CCCN(C(=O)Nc2nnc(-c3ccc(F)cc3)o2)CC1` (stereo not shown) [compound 4937] here?
**A.** 11.1 µM (≈ 4 µg/mL)

**Q.** With `O=C(Nc1nnc(-c2ccc(F)cc2)o1)N1CCC=CCC1` [compound 4935] as the molecule, how does the MIC (E. coli TolC(−)) read?
**A.** 12.5 µM (≈ 3.78 µg/mL)

**Q.** Which MIC (E. coli TolC(−)) does the source give for `O=C(Nc1nnc(-c2ccc3c(c2)CCC3)o1)N1CCC(Cl)=C(Cl)C1` [compound 5154] here?
**A.** 1.75 µM (≈ 0.664 µg/mL)

**Q.** Which MIC (E. coli TolC(−)) does the source give for `O=C(Nc1nnc(-c2ccc(F)cc2)o1)N1CCCc2ccccc2C1` [compound 4777] here?
**A.** 17.7 µM (≈ 6.23 µg/mL)

**Q.** Which results are given for `CC(Oc1ccc(C(=O)Nc2nnc(-c3ccc(F)cc3)o2)cc1)c1ccccc1` (stereo not shown) [compound 4357]?
**A.** CC50 [1]: 45 µM; solubility [2]: 3.1 µM (≈ 1.25 µg/mL); MIC (E. coli TolC(−)): 1.56 µM (≈ 0.63 µg/mL)

**Q.** Which MIC (E. coli TolC(−)) does the source give for `Cc1cc(F)cc(C)c1-c1nnc(NC(=O)N2CCc3ccccc3C2)o1` [compound 5202] here?
**A.** 7.02 µM (≈ 2.57 µg/mL)

**Q.** With `O=C(Nc1nnc(-c2ccc(N3CCCC3)cc2)o1)N1CC=C(C(F)(F)F)CC1` [compound 5223] as the molecule, how does the MIC (E. coli TolC(−)) read?
**A.** 11.1 µM (≈ 4.54 µg/mL)

**Q.** For `O=C(Nc1nnc(-c2ccc(F)cc2)o1)N1CCCC2CCCCC21` (stereo not shown) [compound 4200], which MIC (E. coli TolC(−)) is on record?
**A.** 50 µM (≈ 17.2 µg/mL)

**Q.** For `O=C(Nc1nnc(C2CCC2)o1)c1ccc(Oc2ccccc2)nc1` [compound 4469], which MIC (E. coli TolC(−)) is on record?
**A.** 12.5 µM (≈ 4.2 µg/mL)

**Q.** With `CC(C)C1CCCN(C(=O)Nc2nnc(-c3ccc(F)cc3)o2)C1` (stereo not shown) [compound 5212] as the molecule, how does the MIC (E. coli TolC(−)) read?
**A.** 7.02 µM (≈ 2.33 µg/mL)

**Q.** With `CC1(C)CCN(C(=O)Nc2nnc(-c3ccc(F)cc3)o2)CC1` [compound 4685] as the molecule, how does the MIC (E. coli TolC(−)) read?
**A.** 12.5 µM (≈ 3.98 µg/mL)

**Q.** For `O=C(Nc1nnc(-c2ccc(F)cc2)o1)N1CC(C(F)F)C2(CC2)C1` (stereo not shown) [compound 4932], which MIC (E. coli TolC(−)) is on record?
**A.** 17.7 µM (≈ 6.23 µg/mL)

**Q.** Which MIC (E. coli TolC(−)) does the source give for `O=C1CN(C(=O)Nc2nnc(-c3ccc(F)cc3)o2)CCN1` [compound 4350] here?
**A.** ≥ 100 µM

**Q.** Which MIC (E. coli TolC(−)) does the source give for `O=C(Nc1nnc(-c2ccc(F)cc2)o1)N1CCN(C(=O)c2ccco2)CC1` [compound 4201] here?
**A.** 28.1 µM (≈ 10.8 µg/mL)

**Q.** For `CCC1CCN(C(=O)Nc2nnc(-c3ccc(F)cc3)o2)CC1` [compound 4933], which MIC (E. coli TolC(−)) is on record?
**A.** 6.25 µM (≈ 1.99 µg/mL)

**Q.** Which MIC (E. coli TolC(−)) does the source give for `Cc1nc2c(s1)CN(C(=O)Nc1nnc(-c3ccc(F)cc3)o1)C2` [compound 4464] here?
**A.** ≥ 100 µM

**Q.** For `O=C(Nc1nnc(-c2ccc(F)cc2)o1)N1CCC2(C1)CC2(F)F` (stereo not shown) [compound 4931], which MIC (E. coli TolC(−)) is on record?
**A.** 28.1 µM (≈ 9.49 µg/mL)

**Q.** For `Cc1ccccc1-c1nnc(NC(=O)N2CCC(Cl)=C(Cl)C2)o1` [compound 5215], which MIC (E. coli TolC(−)) is on record?
**A.** 1.56 µM (≈ 0.551 µg/mL)

**Q.** With `O=C(Nc1nnc(-c2ccc(F)cc2)o1)N1CCCC(O)C1` (stereo not shown) [compound 5201] as the molecule, how does the MIC (E. coli TolC(−)) read?
**A.** > 100 µM

**Q.** With `O=C(Nc1nnc(-c2ccc(F)cc2)o1)N1CCCC(F)(F)CC1` [compound 4776] as the molecule, how does the MIC (E. coli TolC(−)) read?
**A.** 12.5 µM (≈ 4.25 µg/mL)

**Q.** For `O=C(Nc1nnc(-c2ccc(F)cc2)o1)N1CCC(F)(F)CC1` [compound 4686], which MIC (E. coli TolC(−)) is on record?
**A.** 12.5 µM (≈ 4.08 µg/mL)

**Q.** Which MIC (E. coli TolC(−)) does the source give for `COCC1=CCN(C(=O)Nc2nnc(-c3ccc(F)cc3)o2)CC1` [compound 4843] here?
**A.** 25 µM (≈ 8.31 µg/mL)

**Q.** For `O=C(Nc1nnc(-c2ccc(F)cc2)o1)N1CCOCC1` [compound 4697], which MIC (E. coli TolC(−)) is on record?
**A.** 100 µM (≈ 29.2 µg/mL)

**Q.** For `CC(C)(C)OC(=O)N1CCC(Oc2ccc(C(=O)Nc3nnc(-c4ccc(F)cc4)o3)cc2)CC1` [compound 4289], which MIC (E. coli TolC(−)) is on record?
**A.** 3.51 µM (≈ 1.69 µg/mL)

**Q.** With `CC(C)(C)OC1CCN(C(=O)Nc2nnc(-c3ccc(F)cc3)o2)CC1` [compound 4995] as the molecule, how does the MIC (E. coli TolC(−)) read?
**A.** 25 µM (≈ 9.06 µg/mL)

**Q.** With `Cc1ccccc1Oc1ccc(C(=O)Nc2nnc(-c3ccc(F)cc3)o2)cc1` [compound 4307] as the molecule, how does the “Microsomal Stability + NADPH % degraded” value [3] read?
**A.** <30%

**Q.** And the CC50 [1]?
**A.** 65 µM

**Q.** What about the solubility [2] of the same molecule?
**A.** 12.5 µM (≈ 4.87 µg/mL)

**Q.** And the MIC (E. coli TolC(−))?
**A.** 1.56 µM (≈ 0.608 µg/mL)

**Q.** Which results are given for `Cc1cccc(Oc2ccc(C(=O)Nc3nnc(-c4ccc(F)cc4)o3)cc2)c1` [compound 4306]?
**A.** Microsomal Stability + NADPH % degraded [3]: <30%; CC50 [1]: > 100 µM; solubility [2]: 6.25 µM (≈ 2.43 µg/mL); MIC (E. coli TolC(−)): 0.984 µM (≈ 0.383 µg/mL)

**Q.** Which MIC (E. coli TolC(−)) does the source give for `O=C(Nc1nnc(-c2ccc(F)cc2)o1)N1Cc2ncsc2C1` [compound 4497] here?
**A.** ≥ 100 µM

**Q.** For `O=C(Nc1nnc(-c2ccc(F)cc2)o1)N1CCC(N2CCCCC2)CC1` [compound 4702], which MIC (E. coli TolC(−)) is on record?
**A.** > 100 µM

**Q.** For `Cc1ccccc1-c1nnc(NC(=O)N2CCc3ccccc3C2)o1` [compound 5214], which MIC (E. coli TolC(−)) is on record?
**A.** 7.02 µM (≈ 2.35 µg/mL)

**Q.** Which MIC (E. coli TolC(−)) does the source give for `Cc1cc(F)cc(C)c1-c1nnc(NC(=O)N2CC=C(C(F)(F)F)CC2)o1` [compound 5204] here?
**A.** 4.96 µM (≈ 1.91 µg/mL)

**Q.** With `O=C(Nc1nnc(C2COc3ccccc3O2)o1)c1ccc(Oc2ccccc2)nc1` (stereo not shown) [compound 4770] as the molecule, how does the MIC (E. coli TolC(−)) read?
**A.** 4.42 µM (≈ 1.84 µg/mL)

**Q.** With `COCCN1[C@H](C)CN(C(=O)Nc2nnc(-c3ccc(F)cc3)o2)C[C@@H]1C` [compound 4406] as the molecule, how does the MIC (E. coli TolC(−)) read?
**A.** 50 µM (≈ 18.9 µg/mL)

**Q.** For `O=C(Nc1nnc(Cc2ccc(F)cc2)o1)c1ccc(Oc2ccccc2)nc1` [compound 4802], which MIC (E. coli TolC(−)) is on record?
**A.** 6.25 µM (≈ 2.44 µg/mL)

**Q.** With `O=C(Nc1nnc(-c2ccc(F)cc2)o1)c1ccc(Oc2ccccc2)cn1` [compound 4258] as the molecule, how does the MIC (E. coli TolC(−)) read?
**A.** 35.4 µM (≈ 13.3 µg/mL)

**Q.** For `CC1CCCN(C(=O)Nc2nnc(-c3ccc(F)cc3)o2)C1` (stereo not shown) [compound 4767], which MIC (E. coli TolC(−)) is on record?
**A.** 11.1 µM (≈ 3.38 µg/mL)

**Q.** With `O=C(Nc1nnc(-c2ccc(F)cc2)o1)N1CCC(C(F)(F)F)C1` (stereo not shown) [compound 4735] as the molecule, how does the MIC (E. coli TolC(−)) read?
**A.** 22.3 µM (≈ 7.67 µg/mL)

**Q.** Which MIC (E. coli TolC(−)) does the source give for `CN1CCN(C(=O)Nc2nnc(-c3ccc(F)cc3)o2)CC1=O` [compound 4351] here?
**A.** ≥ 100 µM

**Q.** For `COC(=O)c1ccc(OC2CCN(C(=O)Nc3nnc(-c4ccc(F)cc4)o3)CC2)cc1` [compound 4778], which MIC (E. coli TolC(−)) is on record?
**A.** 19.8 µM (≈ 8.74 µg/mL)

**Q.** For `O=C(Nc1nnc(-c2ccc(F)cc2)o1)N1CCC(F)(F)C1` [compound 4930], which MIC (E. coli TolC(−)) is on record?
**A.** 19.8 µM (≈ 6.18 µg/mL)

**Q.** For `O=C(Nc1nnc(-c2ccc(F)cc2)o1)N1CCN(c2ncccn2)CC1` [compound 4465], which CC50 [1] is on record?
**A.** > 100 µM

**Q.** And the solubility [2]?
**A.** 12.5 µM (≈ 4.62 µg/mL)

**Q.** And the MIC (E. coli TolC(−))?
**A.** 6.25 µM (≈ 2.31 µg/mL)
